From US20260193170A1 (University of Copenhagen, priority 2022, published 2026)

Biological target: T1, human Keap1 Kelch domain (Homo sapiens, UniProt Q14145)
T1 construct: human Keap1 Kelch domain (residue 321-609, UniProt Q14145); made in house; host or cells: Escherichia coli BL21 (DE3) pLysS, pRSET A vector
Assay: Fluorescence polarization (FP) competition assay, Cy5-Nrf2 peptide probe
Type: binding
Conditions: heterologous competition FP; Keap1 Kelch 14 nM, Cy5-Nrf2 probe 3 nM, 4% DMSO; mean ± SEM
Experimental: The binding affinities between the fluorescent peptide probe Cy5-Nrf2 (SEQ: Cy5-[…]-NH2) and the human Keap1 Kelch domain were determined as Kd values by saturation binding experiments, where increasing concentrations of Keap1 (0-300 nM) were added to a fixed concentration of peptide probe (3 nM). The assay was performed in a 1× HBSTET buffer (10 mM HEPES, 150 mM NaCl, 0.005% Tween20, 3 mM ethylenediaminetetraacetic acid (EDTA), 1 mM TCEP, pH=7.4) using black flat-bottom 384-well plates (Corning Life Sciences, NY), a volume of 30 μL/well, and a final DMSO concentration of 4% or 8%. The assay plate was spun down to ascertain proper mixing and removal of potential air bubbles and incubated for 10-15 min at room temperature before measuring the FP levels on a Safire2 plate reader (Tecan, Mannedorf, Switzerland). The g-factor was adjusted at each experiment so that a series of three blank wells containing probe but no Keap1 Kelch defined the baseline FP value. The Cy5-Nrf2 probe was measured at excitation/emission values of 635:670 nm. The FP values were fitted to the one-site specific binding equation: Y=Bmax×X/(Kd+X), with Bmax being the maximal FP value, X the Keap1 Kelch concentration, and Y the variable FP values. The Kd values were derived from the resulting binding saturation curve as being equal to the Keap1 Kelch concentration, where the curve is half-saturated.
The affinities between nonfluorescent small molecule Keap1 inhibitors and Keap1 Kelch were determined as Ki values in a heterologous competition FP binding assay. This was done by adding increasing concentration of test compound (2-fold serial dilutions, 12 concentrations tested per inhibition curve as duplicates) to a fixed concentration of Keap1 Kelch (14 nM) and the Cy5-Nrf2 peptide probe (3 nM) in the same HBSTET buffer and conditions as described above (final DMSO concentrations were 4%). FP values were fitted to the equation Y=Bottom+(Top−Bottom)/[1+(10^HillSlope×(log IC50−X))], where X is the logarithmic value of compound concentration. Hereby, the IC50 value was obtained, which together with the […] value and probe and Keap1 Kelch concentrations was used to calculate the theoretical competitive inhibition constant, the Ki value. 43 Ki values are shown as mean±SEM (standard error of mean) if based on two or more individual measurements.

T1 sequence (Q14145 321-609): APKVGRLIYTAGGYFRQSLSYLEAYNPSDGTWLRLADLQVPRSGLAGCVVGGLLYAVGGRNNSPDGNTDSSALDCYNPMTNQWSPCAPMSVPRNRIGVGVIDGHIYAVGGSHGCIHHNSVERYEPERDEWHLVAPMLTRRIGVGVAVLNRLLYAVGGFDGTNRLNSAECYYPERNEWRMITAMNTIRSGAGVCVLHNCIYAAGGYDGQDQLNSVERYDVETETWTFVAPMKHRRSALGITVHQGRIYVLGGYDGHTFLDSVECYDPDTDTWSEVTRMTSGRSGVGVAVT

Row | Structure (SMILES) | Ki
1 | O=C(O)CC(c1ccc2c(c1)OCO2)c1ccc2ccc(OCC(=O)NC3CCC(F)(F)CC3)cc2c1 (centres unmarked) [6b, 3-(benzo[d][1,3]dioxol-5-yl)-3-(7-(2-((4,4-difluorocyclohexyl)amino)-2-oxoethoxy)naphthalen-2-yl)propanoic acid] | 0.08 ± 0.01 µM
2 | Cc1cc2c(cc1C(CC(=O)O)c1ccc3ccc(OCC(=O)NC4C=CCCC4)cc3c1)OCCO2 (centres unmarked) [4i, 3-(7-(2-(cyclohex-2-en-1-ylamino)-2-oxoethoxy)naphthalen-2-yl)-3-(7-methyl-2,3-dihydrobenzo[b][1,4]dioxin-6-yl)propanoic acid] | 0.017 ± 0.003 µM
3 | Cc1cc2c(cc1C(CC(=O)O)c1ccc3ccc(OCC(=O)NC4CCCCCC4)cc3c1)OCCO2 (centres unmarked) [2u, 3-(7-(2-(Cycloheptylamino)-2-oxoethoxy)naphthalen-2-yl)-3-(7-methyl-2,3-dihydrobenzo[b][1,4]dioxin-6-yl)propanoic acid] | 0.009 ± 0.003 µM
4 | CC1(NC(=O)COc2ccc3ccc(C(CC(=O)O)c4ccc5c(c4)OCO5)cc3c2)CCCCC1 (centres unmarked) [6f, 3-(benzo[d][1,3]dioxol-5-yl)-3-(7-(2-((1-methylcyclohexyl)amino)-2-oxoethoxy)naphthalen-2-yl)propanoic acid] | 0.477 ± 0.07 µM
5 | Cc1ccc(Cl)cc1C(CC(=O)O)c1ccc2ccc(OCC(=O)NC3CCCCCC3)cc2c1 (centres unmarked) [2v, 3-(5-chloro-2-methylphenyl)-3-(7-(2-(cycloheptylamino)-2-oxoethoxy)naphthalen-2-yl)propanoic acid] | 0.097 ± 0.013 µM
6 | COc1ccc(C(CC(=O)O)c2ccc3ccc(OCC(=O)NC4C=CCCC4)cc3c2)c(C)c1 (centres unmarked) [4k, 3-(7-(2-(cyclohex-2-en-1-ylamino)-2-oxoethoxy)naphthalen-2-yl)-3-(4-methoxy-2-methylphenyl)propanoic acid] | 0.017 ± 0.004 µM
7 | O=C(O)CC(c1cccc(Cl)c1)c1ccc2ccc(OCC(=O)NC3CCCCCC3)cc2c1 (centres unmarked) [2i, 3-(3-Chlorophenyl)-3-(7-(2-(cycloheptylamino)-2-oxoethoxy)naphthalen-2-yl)propanoic acid] | 0.054 ± 0.006 µM
8 | COc1cc(C(CC(=O)O)c2ccc3ccc(OCC(=O)NC4CCCCCC4)cc3c2)cc2nnn(C)c12 (centres unmarked) [2o, 3-(7-(2-(cycloheptylamino)-2-oxoethoxy)naphthalen-2-yl)-3-(7-methoxy-1-methyl-1H-benzo[d][1,2,3]triazol-5-yl)propanoic acid] | 0.0035 ± 0.0006 µM
9 | Cc1cc2c(cc1C(CC(=O)O)c1ccc3ccc(OCC(=O)N[C@H]4C[C@@H]5CC[C@H]4C5)cc3c1)OCCO2 (stereo partly drawn) [5d, 3-(7-(2-(((1S,2S,4R)-bicyclo[2.2.1]heptan-2-yl)amino)-2-oxoethoxy)naphthalen-2-yl)-3-(7-methyl-2,3-dihydrobenzo[b][1,4]dioxin-6-yl)propanoic acid] | ~0.001 µM
10 | O=C(O)CC(c1ccc2ccc(OCC(=O)NC3C=CCCC3)cc2c1)c1ccc2occc2c1 (centres unmarked) [4g, 3-(Benzofuran-5-yl)-3-(7-(2-(cyclohex-2-en-1-ylamino)-2-oxoethoxy)naphthalen-2-yl)propanoic acid] | 0.021 ± 0.002 µM
11 | O=C(O)CC(c1ccc2c(c1)CCO2)c1ccc2ccc(OCC(=O)NC3CCCCC3)cc2c1 (centres unmarked) [3i, 3-(7-(2-(cyclohexylamino)-2-oxoethoxy)naphthalen-2-yl)-3-(2,3-dihydrobenzofuran-5-yl)propanoic acid] | 0.082 ± 0.008 µM
12 | O=C(O)CC(c1ccc2c(c1)OCO2)c1ccc2ccc(OCC(=O)NC3C=CCCC3)cc2c1 (centres unmarked) [4a, 3-(Benzo[d][1,3]dioxol-5-yl)-3-(7-(2-(cyclohex-2-en-1-ylamino)-2-oxoethoxy)naphthalen-2-yl)propanoic acid] | 0.025 ± 0.002 µM
13 | CCCC1CCCCN1C(=O)COc1ccc2ccc(C(CC(=O)O)c3ccc4c(c3)OCO4)cc2c1 (centres unmarked) [6k, 3-(benzo[d][1,3]dioxol-5-yl)-3-(7-(2-oxo-2-(2-propylpiperidin-1-yl)ethoxy)naphthalen-2-yl)propanoic acid] | 0.063 ± 0.003 µM
14 | CC(Oc1ccc2ccc(C(CC(=O)O)c3ccc4c(c3)OCO4)cc2c1)C(=O)NC1CCCCCC1 (centres unmarked) [7a, 3-(Benzo[d][1,3]dioxol-5-yl)-3-(7-((1-(cycloheptylamino)-1-oxopropan-2-yl)oxy)naphthalen-2-yl)propanoic acid] | 0.153 ± 0.012 µM
15 | Cc1cc2occc2cc1C(CC(=O)O)c1ccc2ccc(OCC(=O)NC3CCCCC3)cc2c1 (centres unmarked) [3s, 3-(7-(2-(cyclohexylamino)-2-oxoethoxy)naphthalen-2-yl)-3-(6-methylbenzofuran-5-yl)propanoic acid] | 0.024 ± 0.001 µM
16 | Cc1nc2[nH]ccc2cc1C(CC(=O)O)c1ccc2ccc(OCC(=O)NC3CCCCC3)cc2c1 (centres unmarked) [3n, 3-(7-(2-(cyclohexylamino)-2-oxoethoxy)naphthalen-2-yl)-3-(6-methyl-1H-pyrrolo[2,3-b]pyridin-5-yl)propanoic acid] | 0.129 ± 0.013 µM
17 | O=C(O)CC(c1cccc(Cl)c1)c1ccc2ccc(OCC(=O)NC3C=CCCC3)cc2c1 (centres unmarked) [4j, 3-(3-chlorophenyl)-3-(7-(2-(cyclohex-2-en-1-ylamino)-2-oxoethoxy)naphthalen-2-yl)propanoic acid] | 0.206 ± 0.015 µM
18 | O=C(O)CC(c1ccc2ccc(OCC(=O)N[C@H]3C[C@@H]4CC[C@H]3C4)cc2c1)c1cc2c(cc1Cl)OCO2 (stereo partly drawn) [5b, 3-(7-(2-(((1S,2S,4R)-bicyclo[2.2.1]heptan-2-yl)amino)-2-oxoethoxy)naphthalen-2-yl)-3-(6-chlorobenzo[d][1,3]dioxol-5-yl)propanoic acid] | 0.004 µM
19 | Cc1c(Cl)cccc1C(CC(=O)O)c1ccc2ccc(OCC(=O)NC3C=CCCC3)cc2c1 (centres unmarked) [4c, 3-(3-Chloro-2-methylphenyl)-3-(7-(2-(cyclohex-2-en-1-ylamino)-2-oxoethoxy)naphthalen-2-yl)propanoic acid] | 0.038 ± 0.006 µM
20 | CC(C)(C(=O)O)C(c1ccc2c(c1)OCO2)c1ccc2ccc(OCC(=O)NC3CCCCCC3)cc2c1 (centres unmarked) [7d, 3-(benzo[d][1,3]dioxol-5-yl)-3-(7-(2-(cycloheptylamino)-2-oxoethoxy)naphthalen-2-yl)-2,2-dimethylpropanoic acid] | 0.003 ± 0.001 µM
21 | Cc1cc2c(cc1C(CC(=O)O)c1ccc3ccc(OCC(=O)NC4CCCCC4)cc3c1)OC(F)(F)O2 (centres unmarked) [3r] | 0.007 ± 0.001 µM
22 | CCn1nnc2c(C)c(C(CC(=O)O)c3ccc4ccc(OCC(=O)NC5CCCCC5)cc4c3)ccc21 (centres unmarked) [3h, 3-(7-(2-(cyclohexylamino)-2-oxoethoxy)naphthalen-2-yl)-3-(1-ethyl-4-methyl-1H-benzo[d][1,2,3]triazol-5-yl)propanoic acid] | 0.0048 ± 0.001 µM
23 | O=C(O)CC(c1cccc(Cl)c1)c1ccc2ccc(OCC(=O)NC3CCCCC3)cc2c1 (centres unmarked) [3d, 3-(3-chlorophenyl)-3-(7-(2-(cyclohexylamino)-2-oxoethoxy)naphthalen-2-yl)propanoic acid] | 0.47 ± 0.047 µM
24 | O=C(O)CC(c1ccc2ccc(OCC(=O)NC3CCCCC3)cc2c1)c1ccc2occc2c1 (centres unmarked) [3o, 3-(Benzofuran-5-yl)-3-(7-(2-(cyclohexylamino)-2-oxoethoxy)naphthalen-2-yl)propanoic acid] | 0.068 ± 0.012 µM
25 | Cc1cc2c(cc1C(CC(=O)O)c1ccc3ccc(OCC(=O)NC4CCCCC4)cc3c1)CCO2 (centres unmarked) [3t, 3-(7-(2-(cyclohexylamino)-2-oxoethoxy)naphthalen-2-yl)-3-(6-methyl-2,3-dihydrobenzofuran-5-yl)propanoic acid] | 0.032 ± 0.001 µM
26 | O=C(O)CCc1ccc2ccc(OCC(=O)NC3CCOCC3)cc2c1 [1b, 3-(7-(2-Oxo-2-((tetrahydro-2H-pyran-4-yl)amino)ethoxy)naphthalen-2-yl)propanoic acid] | 38 ± 3 µM
